Publication PMC9127750, “Structure-based design of CDC42 effector interaction inhibitors for the treatment of cancer” (Cell reports, 2022)
Where “and” joins values, the source holds several entries; their conditions need not be identical. Equal entries are not always repeated.

System: WM3248 melanoma cells, 486 antibodies
Test: Reverse phase protein arrays (RPPA);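 for CA9.R.C RPPA level: ratio of treated to vehicle (0 µM) normalized linear protein signal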;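 for CD171.M.V RPPA level: ratio of treated to vehicle (0 µM) normalized linear protein signal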;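 for CREB pS133.R.C RPPA level: ratio of treated to vehicle (0 µM) normalized linear protein signal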;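 for Cyclin.B1.R.V RPPA level: ratio of treated to vehicle (0 µM) normalized linear protein signal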
Type: cell-based, Human
Conditions: 20 uM
Excerpt: Pellets were snap frozen in liquid nitrogen and shipped to MD Anderson Cancer Center core RPPA facility for RPPA analysis (Table S5). Three biological replicates for each sample were generated.
Nomenclatures on the RPPA heatmaps: name_of_antibody.species_of_antibody.status_of_antibody. V - antibody validated; C - validation of antibody in progress; Q - antibody nonspecific; E – under evaluation; antibodies raised in M - mouse, G - goat, R - rabbit, or T - rat.

CN(C)c1cccc(Nc2cc(-c3ccccc3)nc(C3CCNCC3)n2)c1 [ARN22089, N1,N1-dimethyl-N3-(6-phenyl-2-(piperidin-4-yl)pyrimidin-4-yl)benzene-1,3-diamine]
RPPA SGK1.R.V Average (average of 3): 0.842
RPPA SGK3.R.V Average (average of 3): 1.023
RPPA SHP2.R.V Average (average of 3): 1.005
RPPA SHP.2_pY542.R.C Average (average of 3): 1.076
RPPA SIRPαR.V Average (average of 3): 0.981
RPPA SLC1A5.R.C Average (average of 3): 1.080
RPPA SOD1.M.V Average (average of 3): 0.967
RPPA SOD2.R.V Average (average of 3): 1.111
RPPA SOX7.R.V Average (average of 3): 1.078
RPPA STING.R.V Average (average of 3): 0.964
RPPA Shc_pY317.R.C Average (average of 3): 1.012
RPPA Slfn11.G.C Average (average of 3): 0.995
RPPA Smac.M.Q Average (average of 3): 0.977
RPPA Smad1.R.V Average (average of 3): 1.081
RPPA Smad3.R.V Average (average of 3): 1.101
RPPA Smad4.R.V Average (average of 3): 1.112
RPPA Snail.M.Q Average (average of 3): 0.754
RPPA Sox2.R.V Average (average of 3): 1.223
RPPA Sox17.R.V Average (average of 3): 0.982
RPPA Src.M.V Average (average of 3): 0.962
RPPA Src_pY416.R.V Average (average of 3): 1.034
RPPA Src_pY527.R.V Average (average of 3): 1.187
RPPA Stat3.R.C Average (average of 3): 0.979
RPPA Stat3_pY705.R.C Average (average of 3): 1.281
RPPA Stat5a.R.V Average (average of 3): 1.185
RPPA Stathmin.1.R.V Average (average of 3): 0.924
RPPA Syk.M.V Average (average of 3): 0.975
RPPA TAZ.R.V Average (average of 3): 0.719
RPPA TEAD.R.C Average (average of 3): 0.998
RPPA TFAM.R.V Average (average of 3): 0.978
RPPA TFRC.R.V Average (average of 3): 0.934
RPPA TRAP1.M.V Average (average of 3): 0.944
RPPA TRIM24.R.C Average (average of 3): 1.085
RPPA TRIM25.R.C Average (average of 3): 0.893
RPPA TRIP13.R.V Average (average of 3): 0.978
RPPA Transglutaminase.M.V Average (average of 3): 1.323
RPPA signal, antibody TSC1.R.C, Average (average of 3 replicates): 0.906
RPPA signal, antibody TTF1.R.V, Average (average of 3 replicates): 1.016
RPPA signal, antibody TUFM.R.V, Average (average of 3 replicates): 1.103
RPPA signal, antibody Tuberin_pT1462.R.V, Average (average of 3 replicates): 1.116
RPPA signal, antibody Twist.M.C, Average (average of 3 replicates): 0.954
RPPA signal, antibody Tyro3.R.V, Average (average of 3 replicates): 1.154
RPPA signal, antibody U.Histone.H2B.R.C, Average (average of 3 replicates): 2.471
RPPA signal, antibody UBAC1.R.V, Average (average of 3 replicates): 1.016
RPPA signal, antibody UGT1A.M.V, Average (average of 3 replicates): 1.000
RPPA signal, antibody ULK1_pS757.R.C, Average (average of 3 replicates): 0.908
RPPA signal, antibody UQCRC2.M.C, Average (average of 3 replicates): 0.887
RPPA signal, antibody VASP.R.V, Average (average of 3 replicates): 0.952
RPPA signal, antibody VAV1.R.C, Average (average of 3 replicates): 1.024
RPPA signal, antibody VEGFR.2.R.V, Average (average of 3 replicates): 0.928
RPPA signal, antibody VEGFR.2_pY1175.R.C, Average (average of 3 replicates): 1.063
RPPA signal, antibody VHL.EPPK1.M.C, Average (average of 3 replicates): 1.020
RPPA signal, antibody VHL.R.C, Average (average of 3 replicates): 0.956
RPPA signal, antibody Vinculin.M.V, Average (average of 3 replicates): 0.913
RPPA signal, antibody WIPI2.R.C, Average (average of 3 replicates): 1.142
RPPA signal, antibody WTAP.R.V, Average (average of 3 replicates): 1.197
RPPA signal, antibody Wee1.R.C, Average (average of 3 replicates): 1.011
RPPA signal, antibody XBP.1.G.C, Average (average of 3 replicates): 0.972
RPPA signal, antibody XIAP.R.C, Average (average of 3 replicates): 0.993
RPPA signal, antibody XPA.M.V, Average (average of 3 replicates): 0.982
RPPA signal, antibody XPF.R.C, Average (average of 3 replicates): 0.952
RPPA signal, antibody XRCC1.R.C, Average (average of 3 replicates): 1.024
RPPA signal, antibody YAP.R.C, Average (average of 3 replicates): 0.993
RPPA signal, antibody YB1_pS102.R.V, Average (average of 3 replicates): 1.015
RPPA signal, antibody YES1.R.V, Average (average of 3 replicates): 0.974
RPPA signal, antibody YTHDF2.R.V, Average (average of 3 replicates): 1.022
RPPA signal, antibody YTHDF3.R.C, Average (average of 3 replicates): 0.957
RPPA signal, antibody ZAP.70.R.V, Average (average of 3 replicates): 0.929
RPPA signal, antibody ZEB1.R.V, Average (average of 3 replicates): 1.026
RPPA signal, antibody TSC1.R.C (individual replicates): 0.941 and 0.818 and 0.960
RPPA signal, antibody TTF1.R.V (individual replicates): 1.015 and 0.923 and 1.110
RPPA signal, antibody TUFM.R.V (individual replicates): 1.758 and 0.731 and 0.819
RPPA signal, antibody Tuberin.R.V (individual replicates): 0.781 and 1.344 and 1.402
RPPA signal, antibody Tuberin_pT1462.R.V (individual replicates): 0.961 and 1.362 and 1.023
RPPA signal, antibody Twist.M.C (individual replicates): 0.937 and 0.987
RPPA signal, antibody Tyro3.R.V (individual replicates): 1.400 and 1.084 and 0.979
RPPA signal, antibody U.Histone.H2B.R.C (individual replicates): 5.570 and 0.775
RPPA signal, antibody UBAC1.R.V (individual replicates): 1.007 and 0.954
RPPA signal, antibody UBQLN4.M.C (individual replicates): 1.008 and 0.906 and 0.933
RPPA signal, antibody UGT1A.M.V (individual replicates): 0.958 and 1.050 and 0.991
RPPA signal, antibody ULK1_pS757.R.C (individual replicates): 0.848 and 1.011
RPPA signal, antibody UQCRC2.M.C (individual replicates): 0.993 and 0.916 and 0.753
RPPA signal, antibody UVRAG.R.C (individual replicates): 0.916 and 1.111 and 1.110
RPPA signal, antibody VASP.R.V (individual replicates): 1.010 and 0.872 and 0.975
RPPA signal, antibody VAV1.R.C (individual replicates): 0.958 and 1.058 and 1.057
RPPA signal, antibody VEGFR.2.R.V (individual replicates): 0.883 and 0.823 and 1.079
RPPA signal, antibody VEGFR.2_pY1175.R.C (individual replicates): 1.118 and 0.976
RPPA signal, antibody VHL.EPPK1.M.C (individual replicates): 1.005 and 1.203 and 0.853
RPPA signal, antibody VHL.R.C (individual replicates): 0.953 and 0.849
RPPA signal, antibody Vinculin.M.V (individual replicates): 0.888 and 0.854 and 0.998
RPPA signal, antibody WIPI1.R.C (individual replicates): 1.160 and 1.238 and 1.145
RPPA signal, antibody WIPI2.R.C (individual replicates): 1.015 and 1.158 and 1.252
RPPA signal, antibody WTAP.R.V (individual replicates): 1.419 and 1.174 and 0.998
RPPA signal, antibody Wee1.R.C (individual replicates): 0.776 and 1.131 and 1.126
RPPA signal, antibody Wee1_pS642.R.C (individual replicates): 0.845 and 1.173 and 1.116
RPPA signal, antibody XBP.1.G.C (individual replicates): 0.989 and 0.988
RPPA signal, antibody XIAP.R.C (individual replicates): 0.944 and 0.910 and 1.125
RPPA signal, antibody XPA.M.V (individual replicates): 0.967 and 1.026
RPPA signal, antibody XPF.R.C (individual replicates): 0.937 and 0.898 and 1.023
RPPA signal, antibody XRCC1.R.C (individual replicates): 1.008 and 1.026
RPPA signal, antibody YAP.R.C (individual replicates): 1.004 and 1.030 and 0.945
RPPA signal, antibody YAP_pS127.R.V (individual replicates): 1.152 and 0.978 and 0.976
RPPA signal, antibody YB1_pS102.R.V (individual replicates): 1.029 and 0.913 and 1.102
RPPA signal, antibody YES1.R.V (individual replicates): 1.048 and 0.896 and 0.978
RPPA signal, antibody YTHDF2.R.V (individual replicates): 1.166 and 0.983 and 0.917
RPPA signal, antibody YTHDF3.R.C (individual replicates): 0.960 and 0.870
RPPA signal, antibody ZAP.70.R.V (individual replicates): 0.979 and 0.883 and 0.925
RPPA signal, antibody ZEB1.R.V (individual replicates): 1.076 and 1.001 (2×)
C.Raf.R.C RPPA level (replicates): 0.876 and 1.165 and 1.143
C.Raf_pS338.R.V RPPA level (replicates): 0.991 and 1.112 and 1.160
CA9.R.C RPPA level (replicates): 0.919 and 0.861 and 0.996
CD2.M.C RPPA level (replicates): 0.941 and 0.909 and 0.958
CD4.R.V RPPA level (replicates): 0.942 and 0.993 and 1.083
CD5.M.C RPPA level (replicates): 0.997 and 0.956 and 0.945
CD20.R.C RPPA level (replicates): 1.250 and 0.955
CD26.R.V RPPA level (replicates): 1.005 and 0.958 and 1.161
CD29.M.V RPPA level (replicates): 0.953 and 0.914 and 0.985
CD31.M.V RPPA level (replicates): 0.978 and 0.997 and 0.990
CD38.R.C RPPA level (replicates): 0.979 and 1.221 and 1.194
CD44.R.C RPPA level (replicates): 1.115 and 0.966
CD45.M.V RPPA level (replicates): 0.921 and 0.967 and 0.985
CD49b.M.V RPPA level (replicates): 0.971 and 0.954
CD68.M.C RPPA level (replicates): 1.009 and 1.025 and 0.962
CD74.M.V RPPA level (replicates): 1.011 and 1.026 and 0.956
CD134.R.V RPPA level (replicates): 0.989 and 0.997 and 0.996
CD171.M.V RPPA level (replicates): 0.680 and 0.817 and 0.790
CDK1_pT14.R.C RPPA level (replicates): 1.334 and 0.655
CDK9.R.V RPPA level (replicates): 1.161 and 0.839 and 0.893
CDKN2A.R.C RPPA level (replicates): 0.966 and 1.130 and 0.976
CDT1.R.V RPPA level (replicates): 0.905 and 0.934
CENP.A.R.V RPPA level (replicates): 2.651 and 0.953
CHD1L.R.V RPPA level (replicates): 0.935 and 0.987 and 0.941
CIITA.R.C RPPA level (replicates): 1.013 and 1.020 and 0.972
COG3.R.V RPPA level (replicates): 0.941 and 1.097 and 1.256
CRABP1.R.C RPPA level (replicates): 1.019 and 1.064 and 0.991
CRABP2.R.V RPPA level (replicates): 0.965 and 1.085 and 0.882
CREB_pS133.R.C RPPA level (replicates): 0.965 and 1.585 and 1.260
CSK.R.C RPPA level (replicates): 0.871 and 1.022
Calnexin.R.V RPPA level (replicates): 0.849 and 0.983
Caspase.3.cleaved.R.C RPPA level (replicates): 0.952 and 1.128 and 1.028
Caspase.7.cleaved..R.C RPPA level (replicates): 1.007 and 0.873 and 1.064
Caspase.8.M.Q RPPA level (replicates): 1.015 and 0.943 and 0.830
Caspase.8.cleaved.R.C RPPA level (replicates): 0.945
Caveolin.1.R.V RPPA level (replicates): 0.593 and 0.774 and 1.160
Cdc6.R.V RPPA level (replicates): 1.141 and 0.773 and 0.673
Cdc42.R.C RPPA level (replicates): 0.928 and 1.027 and 1.096
Chk1.M.C RPPA level (replicates): 0.847 and 0.982
Chk1_pS296.R.V RPPA level (replicates): 0.942 and 1.163 and 1.155
Chk1_pS345.R.C RPPA level (replicates): 1.030 and 1.165 and 1.125
Chk2.M.V RPPA level (replicates): 0.868 and 0.876 and 0.992
Chk2_pT68.R.C RPPA level (replicates): 0.919 and 1.631 and 1.172
Claudin.7.R.V RPPA level (replicates): 0.970 and 1.594 and 0.965
Collagen.VI.R.V RPPA level (replicates): 1.150 and 0.775 and 0.928
Complex.II.Subunit.M.V RPPA level (replicates): 0.977 and 0.871 and 0.988
Connexin.43.R.C RPPA level (replicates): 0.961 and 1.203 and 1.101
Coup.TFII.R.C RPPA level (replicates): 0.854 and 0.942 and 1.027
Cox2.R.C RPPA level (replicates): 1.254 and 0.972 and 1.574
Cox.IV.R.V RPPA level (replicates): 1.125 and 0.898 and 0.967
Creb.R.C RPPA level (replicates): 1.005 and 1.024 and 1.173
CtIP.R.V RPPA level (replicates): 0.804 and 0.988 and 1.058
Cyclin.B1.R.V RPPA level (replicates): 1.623 and 0.503 and 1.275
Cyclin.D1.R.C RPPA level (replicates): 1.131 and 1.034 and 0.955
